Results taken from patent US7807663B2, “Therapeutic agents for diabetes” (Ajinomoto Co., Inc., priority 2003, dated 2010).
Values after ≈ are worked out from the molar mass of the structure shown.

Tested on: adipose cells of rats
Assay: Evaluation of the sugar transportation activity (2-[14C(U)]-deoxy-D-glucose incorporation)
Assay type: cell-based, Wistar rats
Conditions: rat adipose cells
Method: 1. Preparation of Adipose Cells of Rats:
After the decapitation and venesection of 6 male Wistar rats (body weight: 150 to 200 g), an incision was made in the abdomen of each rat to extract 6 g in total of epididymal adipose tissues. The tissues were finely cut into 2 mm×2 mm pieces in 6 ml of KRH (Krebs-Ringer Hepes, composition: 130 mM of sodium chloride, 4.7 mM of potassium chloride, 1.2 mM of potassium dihydrogenphosphate, 1.2 mM of magnesium sulfate, 1 mM of calcium chloride and 25 mM of Hepes, pH=7.6) containing 5% of BSA (bovine serum albumin). 24 mg of collagenase (type I) was added thereto and the digestion treatment was conducted for about 40 minutes to obtain about 6 ml of isolated adipose cells. The collagenase was removed by the buffer exchange. 2% BSA/KRH solution was added to the residue for the re-suspension to obtain 45 ml of an adipose cell suspension.
2. Evaluation of the Sugar Transportation Activity:
The sugar transportation activity of the compound (I) of the present invention was evaluated with reference to a method described in a literature [Annual Review of Biochemistry, Vol. 55, p. 1059 (1986)]. In the test, 200 μL of the adipose cell suspension was poured in each polystyrene test tube, 100 μL of the solution of the test substance (by dilution of 10 mg/mL dimethyl sulfoxide solution with KRH) was added thereto, and the obtained mixture was shaken and then cultured at 37° C. for 30 minutes. The sugar transportation activity was evaluated by measuring the quantity of 2-[^14C(U)]-deoxy-D-glucose incorporated per a unit time. Namely, 2-[^14C(U)]-deoxy-D-glucose was added to the adipose cell suspension after the pre-culture (the final concentration: 0.5 μCi/sample). 5 minutes after, cytochalasin B (final concentration: 10 μM) was added to the mixture to terminate the sugar transportation. After forming a dinonyl phthalate layer, the obtained mixture was centrifuged to separate the adipose cells from the buffer. The quantity of 2-[^14C(U)]-deoxy-D-glucose contained in the adipose cell layer was determined with a liquid scintillation counter to determine the quantity of the incorporated sugar. In this evaluation system, when insulin (100 nM) having the effect of reinforcing the sugar transportation was used, the effect was about 7 times as high as that obtained in the insulin-free control group.
The results of the evaluation of the sugar transportation activity obtained by using 100 μg/mL of the compound (I) of the present invention are shown in Table 3. The sugar transportation activity in Table 3 was evaluated on the basis of the reinforcing effect of insulin (100 nM). The sugar transportation activity A in Table 3 was determined in terms of the concentration (EC50: μg/mL) of a test compound, having a reinforcing effect corresponding to 50% on the basis of the reinforcing effect of insulin (100 nM) having a reinforcing effect of 100%.
The symbols in Table 3 are as follows: • No: Compound No. in Tables 1 and 2, and • A: sugar transportation activity.

[1] = concentration with reinforcing effect of 50% of that of insulin (100 nM) = 100%, 30 min pre-culture at 37° C., 5 min uptake

| Compound | A: sugar transportation activity (EC50) [1] | also measured |
| --- | --- | --- |
| CCOC(=O)N1[C@@H]2CCCC[C@H]2NC2=C(C(=O)NC2)[C@H]1c1ccccc1C [Compound 89] | 7 µg/mL | – |
| COC(=O)N1[C@@H]2CCCC[C@H]2NC2=C(C(=O)NC2)[C@H]1c1ccccc1C [Compound 90] | 2 µg/mL | – |
| Cc1ccccc1[C@@H]1C2=C(CNC2=O)N(C)[C@@H]2CCCC[C@H]2N1C(=O)CO [Compound 92] | 1.5 µg/mL | – |
| CCCC(=O)N1[C@@H]2CCCC[C@H]2NC2=C(C(=O)NC2)[C@H]1c1ccccc1CC [Compound 93] | 5 µg/mL | – |
| CCC(=O)N1[C@@H]2CCCC[C@H]2NC2=C(C(=O)NC2)[C@H]1c1ccccc1CC [Compound 94] | 2.2 µg/mL | – |
| CCc1ccccc1[C@@H]1C2=C(CNC2=O)N[C@@H]2CCCC[C@H]2N1C(=O)CC(=O)OC [Compound 95] | 2 µg/mL | – |
| CCc1ccccc1[C@@H]1C2=C(CNC2=O)N[C@@H]2CCCC[C@H]2N1C(=O)COC [Compound 97] | 6 µg/mL | – |
| CCc1ccccc1[C@@H]1C2=C(CNC2=O)N[C@@H]2CCCC[C@H]2N1C(=O)OC [Compound 99] | 4 µg/mL | – |
| CCc1ccccc1[C@@H]1C2=C(CNC2=O)N(CC)[C@@H]2CCCC[C@H]2N1C(C)=O [Compound 102] | 5 µg/mL | – |
| O=C1NCC2=C1[C@@H](c1ccccc1C1CC1)N(C(=O)CO)[C@@H]1CCCC[C@H]1N2 [Compound 104] | 0.8 µg/mL | – |
| CC(=O)N1[C@@H]2CCCC[C@H]2NC2=C(C(=O)NC2)[C@H]1c1cccc(F)c1C [Compound 107] | 6 µg/mL | – |
| CCOCC(=O)N1[C@@H]2CCCC[C@H]2NC2=C(C(=O)NC2)[C@H]1c1cccc(Cl)c1C [Compound 108] | 5 µg/mL | – |
| O=C1NCC2=C1[C@@H](c1ccccc1Br)N(C(=O)CC(F)(F)F)[C@@H]1CCCC[C@H]1N2 [Compound 109] | 0.5 µg/mL | – |
| CCC(=O)N1[C@@H]2CCCC[C@H]2NC2=C(C(=O)NC2)[C@H]1c1ccccc1Br [Compound 110] | 1.5 µg/mL | – |
| COC(=O)CC(=O)N1[C@@H]2CCCC[C@H]2NC2=C(C(=O)NC2)[C@H]1c1ccccc1Br [Compound 111] | 1.5 µg/mL | – |
| CCOCC(=O)N1[C@@H]2CCCC[C@H]2NC2=C(C(=O)NC2)[C@H]1c1ccccc1Br [Compound 112] | 8.6 µg/mL | – |
| COCC(=O)N1[C@@H]2CCCC[C@H]2NC2=C(C(=O)NC2)[C@H]1c1ccccc1Br [Compound 113] | 6 µg/mL | – |
| CC(=O)N1[C@@H]2CCCC[C@H]2NC2=C(C(=O)NC2)[C@H]1c1ccccc1Br [Compound 114] | 6 µg/mL | – |

| Compound | A: sugar transportation activity (EC50) [1] | also measured |
| --- | --- | --- |
| CCC(=O)N1[C@@H]2CCCC[C@H]2NC2=C(C(=O)NC2)[C@H]1c1ccccc1Cl [Compound 116] | 3 µg/mL | – |
| CCCC(=O)N1[C@@H]2CCCC[C@H]2NC2=C(C(=O)NC2)[C@H]1c1ccccc1Cl [Compound 117] | 4 µg/mL | – |
| O=C1NCC2=C1[C@@H](c1ccccc1Cl)N(C(=O)CC(F)(F)F)[C@@H]1CCCC[C@H]1N2 [Compound 118] | 0.5 µg/mL | – |
| COCC(=O)N1[C@@H]2CCCC[C@H]2NC2=C(C(=O)NC2)[C@H]1c1ccccc1Cl [Compound 119] | 5 µg/mL | – |
| CCOCC(=O)N1[C@@H]2CCCC[C@H]2NC2=C(C(=O)NC2)[C@H]1c1ccccc1Cl [Compound 120] | 10.7 µg/mL | – |
| COC(=O)CC(=O)N1[C@@H]2CCCC[C@H]2NC2=C(C(=O)NC2)[C@H]1c1ccccc1Cl [Compound 121] | 2 µg/mL | – |
| COC(=O)N1[C@@H]2CCCC[C@H]2NC2=C(C(=O)NC2)[C@H]1c1ccccc1Cl [Compound 122] | 2.4 µg/mL | – |
| CCC(=O)N1[C@@H]2CCCC[C@H]2NC2=C(C(=O)NC2)[C@H]1c1ccccc1F [Compound 124] | 2 µg/mL | – |
| O=C1NCC2=C1[C@@H](c1ccccc1F)N(C(=O)C1CC1)[C@@H]1CCCC[C@H]1N2 [Compound 125] | 2 µg/mL | – |
| CCOCC(=O)N1[C@@H]2CCCC[C@H]2NC2=C(C(=O)NC2)[C@H]1c1ccccc1F [Compound 126] | 2 µg/mL | – |
| COC(=O)N1[C@@H]2CCCC[C@H]2NC2=C(C(=O)NC2)[C@H]1c1ccccc1F [Compound 127] | 2 µg/mL | – |
| COC(=O)N1[C@@H]2CCCC[C@H]2NC2=C(C(=O)NC2)[C@H]1c1ccccc1 [Compound 133] | 2 µg/mL | – |
| CC(=O)N1[C@@H]2CCCC[C@H]2NC2=C(C(=O)NC2)[C@H]1c1ccccc1N [Compound 136] | 12 µg/mL | – |
| COc1ccc([C@@H]2C3=C(CNC3=O)N[C@@H]3CCCC[C@H]3N2C(C)=O)cc1 [Compound 138] | 4.4 µg/mL | – |
| CC(=O)N1[C@@H]2CCCC[C@H]2NC2=C(C(=O)NC2)[C@H]1c1ccc(Br)cc1 [Compound 139] | 17 µg/mL | – |
| CCOCC(=O)N1[C@@H]2CCCC[C@H]2NC2=C(C(=O)NC2)[C@H]1c1ccc(Cl)cc1 [Compound 141] | 6 µg/mL | – |
| CC(=O)N1[C@@H]2CCCC[C@H]2NC2=C(C(=O)NC2)[C@H]1c1ccc(Br)s1 [Compound 144] | – | EC50 [1]: 19 µg/mL (≈ 46.3 µM) |
| insulin [reference compound] | – | effect of reinforcing the sugar transportation relative to insulin-free control group (insulin 100 nM): about 7 times |
